These are literature values, as cited in US20060034895A1, “Supplement food for low blood glucose recovery” (priority 2003, published 2006).

Structures are written as SMILES.

In the case of `O=C[C@H](O)[C@@H](O)[C@H](O)[C@H](O)CO` [D-glucose], the solubility in alcohol entry (alcohol) is recorded as “cannot melt into an alcohol easily”. For the same molecule, under “ether”, the solubility in ether entry is “insoluble to ether”. In addition, the solubility in water entry (water) is recorded as “easy to melt into water”.
